Source: PubChem BioAssay AID1963861 (Molecular Pharmacology Branch, DTP, NCI, 2024)

Tested on: 885724-159-R-J1-PDC KRAS PDC multicell spheroid viability
Test: Anticancer human tumor 885724-159-R-J1-PDC patient-derived pancreatic adenocarcinoma cell line growth inhibition [KRAS2]
Conditions: for IC50: curve of first compound; for viability, T/C: stronger effect = lower value
In short: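 KRAS-mutant tumor cells were grown as spheroids with HUVEC endothelial cells and human MSCs as stroma. Targeted agents were tested alone and with KRAS pathway inhibitors. Doses started at or near clinical Cmax, or 10 microM, descending half-log.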

[1] = second compound 0.1 µM, first compound 0.0316 µM
[2] = second compound 0.1 µM, first compound 0.1 µM
[3] = second compound 0.1 µM, first compound 0.316 µM
[4] = second compound 0.1 µM, first compound 1 µM
[5] = second compound 0.1 µM, first compound 3.16 µM
[6] = second compound 0.1 µM, first compound 10 µM
[7] = second compound 0.316 µM, first compound 0.0316 µM
[8] = second compound 0.316 µM, first compound 0.1 µM
[9] = second compound 0.316 µM, first compound 0.316 µM
[10] = second compound 0.316 µM, first compound 1 µM
[11] = second compound 0.316 µM, first compound 3.16 µM
[12] = second compound 0.316 µM, first compound 10 µM
[13] = second compound 1 µM, first compound 0.0316 µM
[14] = second compound 1 µM, first compound 0.1 µM
[15] = second compound 1 µM, first compound 0.316 µM
[16] = second compound 1 µM, first compound 1 µM
[17] = second compound 1 µM, first compound 3.16 µM
[18] = second compound 1 µM, first compound 10 µM
[19] = second compound 3.16 µM, first compound 0.0316 µM
[20] = second compound 3.16 µM, first compound 0.1 µM
[21] = second compound 3.16 µM, first compound 0.316 µM
[22] = second compound 3.16 µM, first compound 1 µM
[23] = second compound 3.16 µM, first compound 3.16 µM
[24] = second compound 3.16 µM, first compound 10 µM
[25] = second compound 10 µM, first compound 0.0316 µM
[26] = second compound 10 µM, first compound 0.1 µM
[27] = second compound 10 µM, first compound 0.316 µM
[28] = second compound 10 µM, first compound 1 µM
[29] = second compound 10 µM, first compound 3.16 µM
[30] = second compound 10 µM, first compound 10 µM
[31] = second compound 0.1 µM, first compound 0.000316 µM
[32] = second compound 0.1 µM, first compound 0.001 µM
[33] = second compound 0.1 µM, first compound 0.00316 µM
[34] = second compound 0.1 µM, first compound 0.01 µM
[35] = second compound 0.316 µM, first compound 0.000316 µM
[36] = second compound 0.316 µM, first compound 0.001 µM
[37] = second compound 0.316 µM, first compound 0.00316 µM
[38] = second compound 0.316 µM, first compound 0.01 µM
[39] = second compound 1 µM, first compound 0.000316 µM
[40] = second compound 1 µM, first compound 0.001 µM
[41] = second compound 1 µM, first compound 0.00316 µM
[42] = second compound 1 µM, first compound 0.01 µM
[43] = second compound 3.16 µM, first compound 0.000316 µM
[44] = second compound 3.16 µM, first compound 0.001 µM
[45] = second compound 3.16 µM, first compound 0.00316 µM
[46] = second compound 3.16 µM, first compound 0.01 µM
[47] = second compound 10 µM, first compound 0.000316 µM
[48] = second compound 10 µM, first compound 0.001 µM
[49] = second compound 10 µM, first compound 0.00316 µM
[50] = second compound 10 µM, first compound 0.01 µM
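Also: spheroids exposed to agents for 7 days before readout.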

## CC(C)NCC(C(=O)N1CCN(c2ncnc3c2C(C)CC3O)CC1)c1ccc(Cl)cc1 (stereo not given) + CC1OCC2(CCN(c3cnc(Sc4ccnc(N)c4Cl)c(N)n3)CC2)C1N
Second compound 0.1 µM
  IC50: 8340 nM
Second compound 0.316 µM
  IC50: 5810 nM
Second compound 1 µM
  IC50: 2210 nM
Second compound 3.16 µM
  IC50: 524 nM
Second compound 10 µM
  IC50: 100 nM
[1]
  viability, T/C: 77.6%
[2]
  viability, T/C: 72.6%
[3]
  viability, T/C: 64.5%
[4]
  viability, T/C: 65.5%
[5]
  viability, T/C: 63.8%
[6]
  viability, T/C: 45.9%
[7]
  viability, T/C: 72.5%
[8]
  viability, T/C: 60.3%
[9]
  viability, T/C: 58.9%
[10]
  viability, T/C: 61.5%
[11]
  viability, T/C: 59.7%
[12]
  viability, T/C: 42.7%
[13]
  viability, T/C: 67.8%
[14]
  viability, T/C: 62.1%
[15]
  viability, T/C: 55%
[16]
  viability, T/C: 51.4%
[17]
  viability, T/C: 54.4%
[18]
  viability, T/C: 41.7%
[19]
  viability, T/C: 57.1%
[20]
  viability, T/C: 55.6%
[21]
  viability, T/C: 46.2%
[22]
  viability, T/C: 47.5%
[23]
  viability, T/C: 46.5%
[24]
  viability, T/C: 32.2%
[25]
  viability, T/C: 56.4%
[26]
  viability, T/C: 49.6%
[27]
  viability, T/C: 42.4%
[28]
  viability, T/C: 37%
[29]
  viability, T/C: 36.2%
[30]
  viability, T/C: 21.8%

## CC(C)n1nc(-c2ccc3oc(N)nc3c2)c2c(N)ncnc21 + CC1OCC2(CCN(c3cnc(Sc4ccnc(N)c4Cl)c(N)n3)CC2)C1N
Second compound 0.1 µM
  IC50: 63.3 nM
Second compound 0.316 µM
  IC50: 49.8 nM
Second compound 1 µM
  IC50: 33 nM
Second compound 3.16 µM
  IC50: 12 nM
Second compound 10 µM
  IC50: 13.1 nM
[31]
  viability, T/C: 90.5%
[32]
  viability, T/C: 79%
[33]
  viability, T/C: 69.8%
[34]
  viability, T/C: 64.8%
[1]
  viability, T/C: 53.5%
[2]
  viability, T/C: 46.8%
[35]
  viability, T/C: 86.5%
[36]
  viability, T/C: 75.7%
[37]
  viability, T/C: 65%
[38]
  viability, T/C: 58.6%
[7]
  viability, T/C: 55.7%
[8]
  viability, T/C: 44.8%
[39]
  viability, T/C: 76.2%
[40]
  viability, T/C: 69.1%
[41]
  viability, T/C: 63.2%
[42]
  viability, T/C: 53.6%
[13]
  viability, T/C: 53.4%
[14]
  viability, T/C: 43.5%
[43]
  viability, T/C: 77.7%
[44]
  viability, T/C: 79.3%
[45]
  viability, T/C: 61.5%
[46]
  viability, T/C: 53.3%
[19]
  viability, T/C: 45.5%
[20]
  viability, T/C: 47.3%
[47]
  viability, T/C: 72.6%
[48]
  viability, T/C: 70%
[49]
  viability, T/C: 63.2%
[50]
  viability, T/C: 51.5%
[25]
  viability, T/C: 44.1%
[26]
  viability, T/C: 39.6%

## CC1(C)CCC(CN2CCN(c3ccc(C(=O)NS(=O)(=O)c4ccc(NCC5CCOCC5)c([N+](=O)[O-])c4)c(Oc4cnc5[nH]ccc5c4)c3)CC2)=C(c2ccc(Cl)cc2)C1 + CC1OCC2(CCN(c3cnc(Sc4ccnc(N)c4Cl)c(N)n3)CC2)C1N
Second compound 0.1 µM
  IC50: 4310 nM
Second compound 0.316 µM
  IC50: 3450 nM
Second compound 1 µM
  IC50: 2850 nM
Second compound 3.16 µM
  IC50: 1620 nM
Second compound 10 µM
  IC50: 1210 nM
[1]
  viability, T/C: 88%
[2]
  viability, T/C: 88.3%
[3]
  viability, T/C: 89%
[4]
  viability, T/C: 74.8%
[5]
  viability, T/C: 58.2%
[6]
  viability, T/C: 29.7%
[7]
  viability, T/C: 82.3%
[8]
  viability, T/C: 83.8%
[9]
  viability, T/C: 75.4%
[10]
  viability, T/C: 74.2%
[11]
  viability, T/C: 51.7%
[12]
  viability, T/C: 22.1%
[13]
  viability, T/C: 77.8%
[14]
  viability, T/C: 75.2%
[15]
  viability, T/C: 68.5%
[16]
  viability, T/C: 62.2%
[17]
  viability, T/C: 51.1%
[18]
  viability, T/C: 17.6%
[19]
  viability, T/C: 64.1%
[20]
  viability, T/C: 63.7%
[21]
  viability, T/C: 63.2%
[22]
  viability, T/C: 57.4%
[23]
  viability, T/C: 39.7%
[24]
  viability, T/C: 12%
[25]
  viability, T/C: 58%
[26]
  viability, T/C: 58.3%
[27]
  viability, T/C: 60.5%
[28]
  viability, T/C: 53.5%
[29]
  viability, T/C: 30.4%
[30]
  viability, T/C: 3.18%

## CCN1CCN(Cc2ccc(Nc3ncc(F)c(-c4cc(F)c5nc(C)n(C(C)C)c5c4)n3)nc2)CC1 + CC1OCC2(CCN(c3cnc(Sc4ccnc(N)c4Cl)c(N)n3)CC2)C1N
Second compound 0.1 µM
  IC50: > 1000 nM
Second compound 0.316 µM
  IC50: > 1000 nM
Second compound 1 µM
  IC50: > 1000 nM
Second compound 3.16 µM
  IC50: > 1000 nM
Second compound 10 µM
  IC50: > 1000 nM
[33]
  viability, T/C: 88.2%
[34]
  viability, T/C: 94.5%
[1]
  viability, T/C: 78%
[2]
  viability, T/C: 74.3%
[3]
  viability, T/C: 79.8%
[4]
  viability, T/C: 76.9%
[37]
  viability, T/C: 80%
[38]
  viability, T/C: 76.3%
[7]
  viability, T/C: 71.6%
[8]
  viability, T/C: 71.2%
[9]
  viability, T/C: 81.2%
[10]
  viability, T/C: 81%
[41]
  viability, T/C: 82.7%
[42]
  viability, T/C: 77.5%
[13]
  viability, T/C: 71.4%
[14]
  viability, T/C: 63.5%
[15]
  viability, T/C: 75.5%
[16]
  viability, T/C: 73.7%
[45]
  viability, T/C: 73.8%
[46]
  viability, T/C: 73%
[19]
  viability, T/C: 68.7%
[20]
  viability, T/C: 61.5%
[21]
  viability, T/C: 68.1%
[22]
  viability, T/C: 71%
[49]
  viability, T/C: 70.9%
[50]
  viability, T/C: 68.1%
[25]
  viability, T/C: 63.2%
[26]
  viability, T/C: 59.6%
[27]
  viability, T/C: 66%
[28]
  viability, T/C: 63.2%

## CCNC(=O)CC1N=C(c2ccc(Cl)cc2)c2cc(OC)ccc2-n2c(C)nnc21 (stereo not given) + CC1OCC2(CCN(c3cnc(Sc4ccnc(N)c4Cl)c(N)n3)CC2)C1N
Second compound 0.1 µM
  IC50: 1000 nM
Second compound 0.316 µM
  IC50: 676 nM
Second compound 1 µM
  IC50: 600 nM
Second compound 3.16 µM
  IC50: 437 nM
Second compound 10 µM
  IC50: 256 nM
[1]
  viability, T/C: 92.8%
[2]
  viability, T/C: 95%
[3]
  viability, T/C: 67.2%
[4]
  viability, T/C: 54.5%
[5]
  viability, T/C: 43.9%
[6]
  viability, T/C: 49.5%
[7]
  viability, T/C: 86.1%
[8]
  viability, T/C: 80%
[9]
  viability, T/C: 59.2%
[10]
  viability, T/C: 45.2%
[11]
  viability, T/C: 44%
[12]
  viability, T/C: 40.2%
[13]
  viability, T/C: 80.5%
[14]
  viability, T/C: 80%
[15]
  viability, T/C: 56.6%
[16]
  viability, T/C: 45%
[17]
  viability, T/C: 38.5%
[18]
  viability, T/C: 33.9%
[19]
  viability, T/C: 74%
[20]
  viability, T/C: 72.5%
[21]
  viability, T/C: 54.1%
[22]
  viability, T/C: 37.9%
[23]
  viability, T/C: 33.5%
[24]
  viability, T/C: 30.1%
[25]
  viability, T/C: 66.9%
[26]
  viability, T/C: 61.9%
[27]
  viability, T/C: 47.5%
[28]
  viability, T/C: 31.6%
[29]
  viability, T/C: 26.4%
[30]
  viability, T/C: 26.2%

## Cn1ncnc1[C@H]1c2n[nH]c(=O)c3cc(F)cc(c23)N[C@@H]1c1ccc(F)cc1 + CC1OCC2(CCN(c3cnc(Sc4ccnc(N)c4Cl)c(N)n3)CC2)C1N
Second compound 0.1 µM
  IC50: > 100 nM
Second compound 0.316 µM
  IC50: > 100 nM
Second compound 1 µM
  IC50: > 100 nM
Second compound 3.16 µM
  IC50: > 100 nM
Second compound 10 µM
  IC50: > 100 nM
[31]
  viability, T/C: 84.8%
[32]
  viability, T/C: 86.1%
[33]
  viability, T/C: 85.2%
[34]
  viability, T/C: 87.9%
[1]
  viability, T/C: 78.5%
[2]
  viability, T/C: 78.7%
[35]
  viability, T/C: 76.4%
[36]
  viability, T/C: 78%
[37]
  viability, T/C: 78.2%
[38]
  viability, T/C: 79.1%
[7]
  viability, T/C: 71.8%
[8]
  viability, T/C: 69.7%
[39]
  viability, T/C: 78.6%
[40]
  viability, T/C: 74.5%
[41]
  viability, T/C: 71.4%
[42]
  viability, T/C: 68.5%
[13]
  viability, T/C: 69.2%
[14]
  viability, T/C: 73.6%
[43]
  viability, T/C: 70.1%
[44]
  viability, T/C: 72.6%
[45]
  viability, T/C: 69.8%
[46]
  viability, T/C: 67%
[19]
  viability, T/C: 62.5%
[20]
  viability, T/C: 58.8%
[47]
  viability, T/C: 62.7%
[48]
  viability, T/C: 65.5%
[49]
  viability, T/C: 64.8%
[50]
  viability, T/C: 59.9%
[25]
  viability, T/C: 61.7%
[26]
  viability, T/C: 61.4%
